From publication PMC3879379, “Gold(III)-Dithiocarbamato Peptidomimetics in the Forefront of the Targeted Anticancer Therapy: Preclinical Studies against Human Breast Neoplasia” (PLoS ONE, 2014)
Like-named read-outs stand apart in the source and are kept apart here.

Experiments:
MDA-MB-231 xenografts [1] = test: Immunohistochemical p27 and TUNEL staining of tumor samples; assay type: in vivo, female athymic nude mice; settings: xenograft tumors, 1 mg kg^−1 d^−1
Experimental: IHC was performed using a previously reported protocol. Briefly, tumor samples were paraffin-embedded by the Pathology Core at Karmanos Cancer Institute (Detroit, MI, USA). Samples were then cut and stained for p27 or TUNEL by the BioBank at William Beaumont Hospital (Royal Oak, MI, USA). Anti-p27 (VP-P951) was from Vector Laboratories (Burlingame, CA, USA) and was used at a 1∶30 dilution followed by detection by DAKO. Samples were counterstained with DAB/Hematoxylin. TUNEL staining was performed using anti-digoxigenin and peroxidase substrate, followed by counterstaining with methyl green. In both cases, brown colored cells were considered positive.

[2] = molecular target: T1, proteasomal CT-like activity (Homo sapiens, UniProt P28074); test: Proteasomal CT-like activity in xenograft tumor tissue; assay type: in vivo, female athymic nude mice; settings: xenograft tumors, 1 mg kg^−1 d^−1, after 27 days of treatment
T1 construct: from tissue; host or cells: MDA-MB-231 xenograft tumour tissue from female athymic nude mice
T1 sequence (P28074 60-263): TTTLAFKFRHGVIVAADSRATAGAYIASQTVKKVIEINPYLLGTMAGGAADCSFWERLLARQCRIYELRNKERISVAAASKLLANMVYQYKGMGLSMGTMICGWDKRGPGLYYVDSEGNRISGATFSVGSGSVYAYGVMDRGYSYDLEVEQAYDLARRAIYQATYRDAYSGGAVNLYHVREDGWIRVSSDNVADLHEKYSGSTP
Experimental: (§1) Seven-week-old female athymic nude mice were purchased from Harlan Laboratories (Indianapolis, USA) and housed in accordance with protocols approved by the Institutional Laboratory Animal Care and Use Committee of Wayne State University. Human breast cancer MDA-MB-231 cells suspended in 0.1 mL of serum-free DMEM/F12 cell growth medium were inoculated subcutaneously (s.c.) into the right flank of each mouse. When tumors reached a volume of around 115 mm^3, the mice were randomly allocated into three groups (seven mice per group) and treated five days a week by s.c. injection of either vehicle [1∶1∶1 v/v PBS, DMSO, Cremophore/ethanol (1∶4)] or medium containing 1.0 mg/kg of AuD6 or AuD8. Tumor length (L) and width (W) were measured every other day using a caliper, and tumor volumes were evaluated according to the standard formula (π ⋅ L ⋅ W^2)/6. Mouse weights were monitored weekly. Four mice per group were sacrificed after 27 days of treatment, or when tumors reached ∼1,800 mm^3, and the remaining three mice per group were sacrificed after 13 days to observe any early effects of treatments. The tumors were collected and weighed. Tumor tissues were used to measure proteasome inhibition and caspase-3 activation by enzymatic activity assays and by Western blot analysis.

[3] = molecular target: T2, Purified human 20S proteasome (Homo sapiens, UniProt P28072+P28074+Q99436); test: Proteasome activity assay on purified 20S proteasome (fluorogenic substrates); assay type: biochemical; settings: 2 h incubation
T2 construct: purchased Boston Biochem (Boston, MA)
Experimental: Purified human 20S proteasome (0.5 nM) was incubated in triplicate with three different proteasomal fluorogenic substrates (20 µM) and each compound (dissolved in DMSO) at various concentrations ranging from 0.1 to 10 µM (or an equivalent volume of solvent DMSO as a control) in 100 µL of assay buffer [20 mM Tris-HCl (pH 7.5)].

MDA-MB-231 cells [4] = test: Cellular morphology (phase contrast imaging); assay type: cell-based, human; settings: MDA-MB-231, 24 h
Description: A Zeiss (Thornwood, NY) Axiovert 25 microscope was used for cellular morphology microscopic imaging with phase contrast.

MDA-MB-231 cells [5] = test: MTT cell proliferation assay; assay type: cell-based, human; settings: for IC50: read-out: IC50 (MTT, inhibition of cell proliferation)
Experimental: Human breast cancer MDA-MB-231 cells were obtained from American Type Culture Collection (Manassas, VA) and grown in DMEM/F12 supplemented with 10% fetal bovine serum, 1 mM sodium pyruvate, 10 mM HEPES, 100 U/mL penicillin and 100 µg/mL streptomycin. Cells were grown in a humidified incubator with 5% CO2 at 37°C. Cells were seeded in octuplicate in 96-well plates and grown to 70%–80% confluence, followed by treatment with DMSO (control) or each compound (dissolved in DMSO) in fresh medium at the indicated concentrations. After 24 or 72 hours incubation at 37°C, inhibition of cell proliferation was measured by MTT assay, as previously described. The cytotoxicity of the compounds was quantified as the percentage of cells surviving relative to untreated cells. Four MTT tests for each compound were performed in order to evaluate the corresponding IC50 values.

[6] = molecular target: T3, proteasome of MDA-MB-231 cell extract (Homo sapiens, UniProt P28072+P28074+Q99436); test: Proteasome activity assay on MDA-MB-231 whole-cell extract; assay type: biochemical; settings: 2 h incubation
T3 construct: endogenous in cells; host or cells: MDA-MB-231 whole-cell extract
T3 sequence (P28074 60-263): T1 sequence (P28074 60-263)
T3 sequence (P28072 1-239): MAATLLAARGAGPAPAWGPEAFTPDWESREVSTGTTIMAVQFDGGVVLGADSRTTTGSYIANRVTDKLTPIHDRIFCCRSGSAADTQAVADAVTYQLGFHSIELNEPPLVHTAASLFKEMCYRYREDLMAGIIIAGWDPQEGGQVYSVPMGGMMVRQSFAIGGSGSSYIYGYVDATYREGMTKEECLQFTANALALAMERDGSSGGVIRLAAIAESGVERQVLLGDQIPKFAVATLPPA
T3 sequence (Q99436 44-277): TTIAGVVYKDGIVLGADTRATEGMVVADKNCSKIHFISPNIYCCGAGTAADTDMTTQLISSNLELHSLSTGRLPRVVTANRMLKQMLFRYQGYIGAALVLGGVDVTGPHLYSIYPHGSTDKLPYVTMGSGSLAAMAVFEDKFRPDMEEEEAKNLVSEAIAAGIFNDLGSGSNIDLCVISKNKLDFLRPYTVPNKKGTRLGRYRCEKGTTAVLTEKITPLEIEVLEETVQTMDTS
Experimental: Likewise, MDA-MB-231 whole-cell extract (10 µg/well) was incubated in quadruplicate with each complex and each fluorogenic substrate in 100 µL of assay buffer [20 mM Tris-HCl (pH 7.5)]. Fluorescence data were acquired after 1 hour and 2 hours incubation at 37°C. The whole-cell extract was prepared as described elsewhere.

MDA-MB-231 cells [7] = test: MTT assay with ROS scavenger Trolox (pretreatment or co-treatment); assay type: cell-based, human; settings: for reduction of IC50 by co-treatment with Trolox: MDA-MB-231, 24 h co-treatment with Trolox 100 µM
Experimental: In order to investigate whether cell death is affected by free radicals produced in situ by our compounds, cells were seeded in quadruplicate and treated with both complexes and Trolox. We first pretreated cells for 1 h with Trolox at 100 µM and after changing medium, treated cells with compounds and incubated for an additional 24 h. Alternatively, we co-treated cells for 24 h with both compounds and Trolox (100 µM), followed by MTT assay.

MDA-MB-231 cells [8] = test: Annexin-V FITC/PI apoptosis assay (flow cytometry); assay type: cell-based, human; settings: MDA-MB-231, 20 µM; for cells in early stage apoptosis: 16 or 24 h (time not specified)
Experimental: Apoptosis indexes were measured using the Annexin-V fluorescein isothiocyanate (FITC) apoptosis detection kit I from by BD Pharmingen. MDA-MB-231 cells were grown to around 75% confluence, treated with gold-based complexes (20 µM) or solvent as a control for 16 or 24 h, harvested by means of a scraper and centrifugation. Cell pellets were washed twice with ice cold PBS and cells were then resuspended in 1× binding buffer at a concentration of 1•10^6 cells/mL. 100 µL of the suspension was then transferred to a 5 mL flow cytometry tube and 5 µL FITC Annexin V and 5 µL PI for double stained samples (either 5 µL of FITC Annexin V or 5 µL of PI for controls) were added. Mixtures were gently vortexed and incubated for 15 min at RT in the dark followed by addition of 400 µL 1× binding buffer to each tube. Then, analysis by flow cytometry occurred within 1 h at the Microscopy, Imaging and Cytometry Resources (MICR) Core at the Karmanos Cancer Institute, Wayne State University. Data (Figure 3) are presented as density plots of Annexin-V (x-axis) and propidium iodide (PI, y-axis) stainings. Unstained cells, cells stained with either PI or FITC Annexin-V only, and untreated cells stained with both PI and Annexin-V were used to set up compensation and quadrants. The excitation wavelength was 488 nm and the detection wavelengths were 530±15 and 620±21 nm for Annexin V and PI, respectively. Cells staining negative for both markers were considered viable since Annexin V and PI are both cell membrane impermeable while cells staining positive for both markers were considered in late apoptosis. Cells staining positive for Annexin only were considered in early apoptosis whereas cells staining positive for PI only were considered dead by a necrotic pathway. Percentages of viable, apoptotic, and necrotic cells are reported in the corner of each quadrant (Figure 3).

p27 = test: Western blot of p27 in treated cells; assay type: cell-based, human; settings: MDA-MB-231, 24 h
Experimental: MDA-MB-231 cells were grown to around 75% confluence, treated with gold-based complexes or solvent as a control, harvested, and lysed. Cell lysates (30 µg/lane) were separated by SDS-PAGE and transferred to a nitrocellulose membrane. After blocking of non-specific binding (5% non-fat dry milk in Tris-Buffered Saline with Tween 20-TBST), membranes were incubated overnight at 4°C with primary antibodies, followed by washing with TBST and incubation for 2 h with secondary antibodies. Bands of interest were visualized using HyGLO Chemiluminescent HRP Antibody detection reagent, HyBlot Chemiluminescence films (Denville Scientific Inc.; Metuchen, NJ) and a HOPE Micro-MAX film processor.

MDA-MB-231 xenografts [9] = test: Human breast tumor xenograft growth; assay type: in vivo, female athymic nude mice; settings: 1.0 mg kg^−1 d^−1 s.c.
Experimental: as §1, with “analysis. […]” for “analysis.”

[10] = read-out: IC50 Chymotrypsin-like activity
[11] = read-out: IC50 PGPH-like activity
[12] = read-out: IC50 Trypsin-like activity

Structure (SMILES) | TUNEL positive (staining of tumor) (MDA-MB-231 xenografts [1]) [%] | p27 positive (immunohistochemical staining of tumor) (MDA-MB-231 xenografts [1]) [%] | inhibition of the proteasomal CT-like pocket in tumor tissue [2] [%] | IC50 [3, 10] [nM] | IC50 [3, 11] [nM] | IC50 [3, 12] [nM] | concentration at which apoptotic morphological changes were observed (MDA-MB-231 cells [4]) [µM] | IC50 [6, 10] [nM] | IC50 [6, 11] [nM] | IC50 [6, 12] [nM] | reduction of IC50 by co-treatment with Trolox (MDA-MB-231 cells [7]) | cells in early stage apoptosis (MDA-MB-231 cells [8]) | apoptotic cells at late stage (upper right quadrant) (MDA-MB-231 cells [8]; 24 h) [%] | further results
C[N+](CC(=O)NCC(=O)OC(C)(C)C)=C1[S][Au-]([Br])([Br])[S]1 [AuD6, [Au^IIIBr2(dtc-Sar-AA-O(t-Bu))]] | ~75 | ~20 | 14 | 420 ± 30 | 490 ± 90 | 510 ± 70 | 20 | 3300 ± 400 | 2300 ± 800 | 3000 ± 900 | approximately 3 fold | 7–9% | 49 | IC50 (MDA-MB-231 cells [5]; MDA-MB-231, 72 h treatment): 13000 ± 1000 nM
C[N+](CC(=O)NC(C)(C)C(=O)OC(C)(C)C)=C1[S][Au-]([Br])([Br])[S]1 [AuD8, [Au^IIIBr2(dtc-Sar-AA-O(t-Bu))]] | ~30 | ~95 | 33 | 290 ± 70 | 540 ± 80 | 610 ± 20 | 10 | 2900 ± 600 | 4500 ± 900 | 5700 ± 100 | very little effect | 7–9% | 74.1 | concentration inducing p27 accumulation (p27): below 1 µM; inhibition of tumor growth compared to control (MDA-MB-231 xenografts [9]; 27 days, p<0.05): 53%; tumor volume at end of treatment (MDA-MB-231 xenografts [9]; day 27): 849±79 mm^3; apoptotic cells at late stage (upper right quadrant) (MDA-MB-231 cells [8]; 16 h): 62.9%
Cc1c(C)c2c(c(C)c1O)CCC(C)(C(=O)O)O2 (centres unmarked) [Trolox, reference compound] |  |  |  |  |  |  |  |  |  |  |  |  |  | inhibition at 100 µM (MDA-MB-231 cells [7]; Homo sapiens, MDA-MB-231, Trolox 100 µM, 24 h treatment, read-out: inhibition of tumor cell growth by Trolox alone): ~25%
N.N.[Cl][Pt][Cl] [cisplatin, cis-diammineplatinum(II) dichloride] |  |  |  |  |  |  |  |  |  |  |  |  |  | growth-inhibitory effect (MDA-MB-231 cells [5]; MDA-MB-231, 100 µM, 24 h treatment): around 40%; IC50 (MTT, inhibition of cell proliferation) (MDA-MB-231 cells [5]; MDA-MB-231, 24 h treatment): not reached; IC50 (MDA-MB-231 cells [5]; MDA-MB-231, 24 h treatment): > 100000 nM
